# Article PMC6767236, “Selective Cannabinoid 2 Receptor Agonists as Potential Therapeutic Drugs for the Treatment of Endotoxin-Induced Uveitis” (Molecules, 2019)
# Key:
# [1] = Plasma protein binding (equilibrium dialysis), mouse plasma; type: in vitro ADME; settings: C57, pH 7.4, read-out: Plasma Protein Binding: FREE Fraction mouse
# Method: Pooled and frozen plasma from selected species were obtained from commercial suppliers […]
# (human […] and mouse […]3-C57; BioreclamationIV, NY, USA). Teflon […]
# equilibrium dialysis plates (96-well, 150 μL, half-cell capacity) and cellulose membranes (12–14 kDa molecular weight cut-off) were purchased from HT-Dialysis (Gales Ferry, Connecticut). Both biological matrix and phosphate buffer pH were adjusted to 7.4 on the day of the experiment. The reference substance was diazepam.
# The determination of unbound compound was performed using a 96-well format equilibrium dialysis device with a molecular weight cut-off membrane of 12 to 14 kDa. […]
# At equilibrium, the unbound drug concentration in the biological matrix compartment of the equilibrium dialysis apparatus is the same as the concentration of the compound in the buffer compartment. Thus, the percent unbound fraction was be calculated by determining the compound concentrations in the buffer and matrix compartments after dialysis as follows: % fraction unbound = 100 × buffer concentration after dialysis/matrix concentration after dialysis. […]
# P-glycoprotein (permeability-glycoprotein (P-gp), also known as multidrug resistance protein 1) is the most studied and best characterized drug transporter. […] The effect of P-gp was measured by expressing the efflux ratio of the unidirectional A > B and B > A Papp values. […]
# [2] = parameters: method as in earlier work; settings: * previously published, cited from earlier work
# [3] = pKa; type: physicochemical; settings: read-out: pKa (basic)
# [4] = target: T1, human CB1R (Homo sapiens, UniProt P21554); assay: cAMP assay, CHO cells expressing human CB1R; type: cell-based; settings: read-out: hCB1R: cAMP EC50
# T1 construct: host or cells: CHO
# Method: The effect of ligands on the forskolin-stimulated accumulation of cAMP was determined using the LANCE ULTRA cAMP kit as per the manufacturer’s instruction (Perkin-Elmer Life Sciences, Boston, MA, USA).
# For human CB2R and CB1R, cAMP assays were performed using CHO cells stably expressing human CB2R or human CB1R (DiscoveRx, Fremont, CA, USA) using a cAMP-Nano-TRF detection kit (Roche Diagnostics, Penzberg, Germany). Cells were seeded 17–24 h prior to the experiment at a density of 3 × 10^4 cells per well in a black 96-well plate with clear flat bottom (Corning, Wiesbaden, Germany) and incubated in 5% CO2 at 37 °C in a humidified incubator. The growth medium was exchanged with Krebs Ringer bicarbonate buffer with 1 mmol/L 3-isobutyl-1-methylxanthine (IBMX), 0.1% fatty acid-free BSA and incubated at 30 °C for 60 min. Agonist was added to a final assay volume of 100 μL and the mixture was incubated for 30 min at 30 °C. The assay was stopped by the addition of 50 μL 3 × lysis reagent and shaken for 2 h at room temperature. The time-resolved fluorescence energy transfer was measured using an LF502 Nanoscan FLT (IOM, Berlin, Germany), equipped with a laser as excitation source. cAMP content was determined from the function of a standard curve spanning from 10 to 0.13 nmol/L cAMP. Efficacies are expressed as percent relative to 1 µM CP55940.
# T1 sequence (P21554 whole entry): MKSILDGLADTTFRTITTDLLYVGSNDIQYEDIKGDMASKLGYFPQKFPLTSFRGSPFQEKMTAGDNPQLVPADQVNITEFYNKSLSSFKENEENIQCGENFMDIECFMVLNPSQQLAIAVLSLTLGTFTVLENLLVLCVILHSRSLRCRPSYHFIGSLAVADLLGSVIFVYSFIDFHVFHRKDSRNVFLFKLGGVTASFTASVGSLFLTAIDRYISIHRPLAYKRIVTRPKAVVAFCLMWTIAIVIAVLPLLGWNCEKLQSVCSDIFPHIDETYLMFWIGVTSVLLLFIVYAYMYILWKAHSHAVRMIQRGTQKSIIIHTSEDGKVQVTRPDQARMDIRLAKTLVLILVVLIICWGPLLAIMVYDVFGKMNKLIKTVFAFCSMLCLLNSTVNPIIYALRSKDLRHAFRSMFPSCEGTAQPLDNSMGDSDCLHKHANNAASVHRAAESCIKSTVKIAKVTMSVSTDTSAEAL
SMILES,"fraction unbound at 5 h, 1000 nM [1]",Thermodynamic Solubility in FaSSIF (pH 6.5) ([2]; FaSSIF pH 6.5),Thermodynamic Solubility in FeSSIF (pH 5.5) ([2]; FeSSIF pH 5.5),Thermodynamic Solubility in Aqueous Buffer (pH 6.5) ([2]; aqueous phosphate buffer pH 6.5),pKa [3],EC50 [4]
"CC(C)(C)c1nc(N2CC[C@H](O)C2)c2nnn(Cc3nnnn3C3CC3)c2n1 [RO6871304, (3S)-1-{5-tert-butyl-3-[(1-cyclopropyl-1H-tetrazol-5-yl)methyl]-3H-[1,2, 3]triazolo[4,5-d]pyrimidin-7-yl}pyrrolidin-3-ol]",0.031,80 μg/mL,273 μg/mL,56 μg/mL,2.7,–
"CNC(=O)[C@@H](NC(=O)c1cc(OCC2(C)COC2)c(C2CC2)cn1)C(C)(C)C [RO6851228, 5-Cyclopropyl-N-[(2S)-3,3-dimethyl-1-(methylamino)-1-oxobutan-2-yl]-4-[(3-methyloxetan-3-yl)methoxy]pyridine-2-carboxamide]",–,–,–,–,–,> 10 µM
